Test results from paper PMC7297445, “Pharmacokinetic/Pharmacodynamic Determination and Preclinical Pharmacokinetics of the β-Lactamase Inhibitor ETX1317 and Its Orally Available Prodrug ETX0282” (ACS Infectious Diseases, 2020).

Experiment: Plasma protein binding
Format: in vitro ADME, dog
Description: Plasma protein binding was determined by rapid equilibrium dialysis. Plasma was freshly prepared from blood samples drawn in to EDTA (anticoagulant) containing tubes. Plasma was prepared using a table-top centrifuge and spun per instruction of the tube manufacturer and specifications (Beckton, Dickinson and Company, Franklin Lakes, NJ) and placed on ice prior to use.
Pooled plasma samples were centrifuged at 2000 rpm (approximately 1400g) for 15 min at 4 °C to remove debris. Approximately 90% of the clear supernatant fraction was transferred to a separate tube. Samples (500 μL) were then spiked with a 100× stock solution 100 μM, 0.5 mM, and 10 mM ETX1317 in DMSO respectively for 1, 5, and 100 μM final concentrations, transferred to the top of the filter chambers, and allowed to equilibrate for 15 min prior to centrifugation. The filtrate tubes were centrifuged at 14000g for 15 min at 4 °C. Next, 50 μL of the filtrate was precipitated with 300 μL of acetonitrile containing 250 ng/mL of carbutamide as the internal standard and the samples were analyzed by LC/MS/MS analysis.

CC1=C[C@@H](C(N)=O)N2C[C@@H]1N(O[C@H](F)C(=O)O)C2=O [ETX1317]
Proportion unbound (1 µM): 92% | Proportion unbound (5 µM): 100% | Proportion unbound (100 µM): 81%
